# In PMC4917448 (Journal of biomolecular screening, 2016):
# Entries after “also recorded” stand apart in the source; their conditions may differ.
# What was measured:
# [1] = test system: HDAC I/II; assay: HDAC-Glo I/II assay in HCT116 cells; type: cell-based, human; conditions: for HDAC-Glo: Efficacy, HCT116 / Efficacy, HDAC-Glo I/II HCT116 assay: maximal response; for HDAC I/II inhibitory activity (in words): HCT116 and HEK293 cells, validation with epigenetics libraries; for HDAC activity inhibited, HDAC-Glo I/II: HCT116, qHTS primary screening of NPC library; for IC50, HDAC-Glo activity: HCT116, validation with epigenetics libraries, 0.7 nM-46 μM
# [2] = test system: human neural stem cells; assay: CellTiter-Glo cell viability assay in hNSC; type: cell-based; conditions: cherry-pick confirmation, 1 hour
# [3] = test system: HCT116 cells; assay: CellTiter-Glo cell viability assay in HCT116; type: cell-based, human; conditions: cherry-pick confirmation, 1 hour
# [4] = test system: HDAC I/II; assay: HDAC-Glo I/II assay in human neural stem cells; type: cell-based; conditions: cherry-pick confirmation; for HDAC-Glo: Efficacy, hNSC: maximal response; for IC50: read-out: HDAC-Glo: IC50, hNSC, 11 concentrations, 1 hour; for inhibition of HDAC-Glo I/II luminescence signals: hNSCs, Figure 2
# [5] = biological target: T1, HDAC6 (Homo sapiens, UniProt Q9UBN7); assay: Fluorogenic isoform-specific HDAC assay, HDAC6; type: biochemical; conditions: 20 μM
# T1 sequence (Q9UBN7 1-1215): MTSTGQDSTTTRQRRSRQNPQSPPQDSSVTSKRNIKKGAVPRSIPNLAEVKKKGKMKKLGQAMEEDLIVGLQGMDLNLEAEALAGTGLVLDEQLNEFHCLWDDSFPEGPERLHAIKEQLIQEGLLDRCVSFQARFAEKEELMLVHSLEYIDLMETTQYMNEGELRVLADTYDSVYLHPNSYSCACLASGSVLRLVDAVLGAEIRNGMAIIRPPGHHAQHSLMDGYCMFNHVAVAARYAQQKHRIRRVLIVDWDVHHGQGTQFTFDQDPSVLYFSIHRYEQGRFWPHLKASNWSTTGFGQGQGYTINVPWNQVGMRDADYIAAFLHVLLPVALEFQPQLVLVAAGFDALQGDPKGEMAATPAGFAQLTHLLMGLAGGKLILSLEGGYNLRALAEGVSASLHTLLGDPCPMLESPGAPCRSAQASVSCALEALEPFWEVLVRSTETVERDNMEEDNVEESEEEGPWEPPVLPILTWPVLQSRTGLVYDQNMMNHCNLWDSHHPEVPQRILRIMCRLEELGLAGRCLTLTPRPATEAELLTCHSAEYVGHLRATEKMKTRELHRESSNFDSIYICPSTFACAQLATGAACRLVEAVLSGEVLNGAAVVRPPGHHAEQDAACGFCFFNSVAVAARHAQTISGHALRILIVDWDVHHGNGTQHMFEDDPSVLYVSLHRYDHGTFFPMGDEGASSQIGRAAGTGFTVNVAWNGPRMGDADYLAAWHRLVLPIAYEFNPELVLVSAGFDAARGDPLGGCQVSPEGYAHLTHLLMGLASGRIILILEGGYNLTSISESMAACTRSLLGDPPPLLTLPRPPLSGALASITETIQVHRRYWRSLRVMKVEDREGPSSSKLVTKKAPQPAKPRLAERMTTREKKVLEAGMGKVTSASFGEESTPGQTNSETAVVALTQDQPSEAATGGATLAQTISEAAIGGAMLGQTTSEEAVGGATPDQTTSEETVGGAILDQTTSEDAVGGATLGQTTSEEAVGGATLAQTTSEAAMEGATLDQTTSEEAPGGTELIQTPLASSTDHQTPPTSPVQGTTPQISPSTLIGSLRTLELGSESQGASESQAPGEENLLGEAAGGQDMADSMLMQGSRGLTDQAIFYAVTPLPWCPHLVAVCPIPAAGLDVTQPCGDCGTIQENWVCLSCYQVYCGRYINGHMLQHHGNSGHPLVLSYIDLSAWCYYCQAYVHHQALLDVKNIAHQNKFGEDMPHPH
# [6] = biological target: HDAC3 (Homo sapiens, UniProt O15379); assay: Fluorogenic isoform-specific HDAC assay, HDAC3; type: biochemical; conditions: 20 μM
# Sequence of HDAC3 (O15379 whole entry, canonical isoform): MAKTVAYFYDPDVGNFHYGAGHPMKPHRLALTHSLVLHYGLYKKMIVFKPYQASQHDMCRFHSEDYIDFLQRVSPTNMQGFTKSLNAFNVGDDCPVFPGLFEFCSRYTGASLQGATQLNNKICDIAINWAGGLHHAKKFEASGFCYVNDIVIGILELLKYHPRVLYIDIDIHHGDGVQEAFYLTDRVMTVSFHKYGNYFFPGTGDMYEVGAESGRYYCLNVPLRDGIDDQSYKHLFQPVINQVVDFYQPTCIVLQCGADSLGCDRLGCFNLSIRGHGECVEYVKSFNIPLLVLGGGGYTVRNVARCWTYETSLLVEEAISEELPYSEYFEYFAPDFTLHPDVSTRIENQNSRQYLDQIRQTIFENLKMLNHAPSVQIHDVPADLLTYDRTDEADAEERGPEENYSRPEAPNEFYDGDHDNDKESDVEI
# Sequence of HDAC3 (Q9Y618 395-489 partner limits assumed): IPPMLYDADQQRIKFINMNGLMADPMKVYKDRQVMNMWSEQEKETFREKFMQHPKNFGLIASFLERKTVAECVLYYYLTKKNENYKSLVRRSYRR
# [7] = test system: class I and II HDAC enzymes; assay: Panel of fluorogenic assays against ten class I and II HDAC isoforms; type: biochemical, human; conditions: 20 μM; for inhibition of HDAC isoforms (in words): Figure 3
# [8] = test system: HDAC I/II; assay: HDAC-Glo I/II assay in HEK293 cells; type: cell-based, human; conditions: HEK293, validation with epigenetics libraries, 0.7 nM-46 μM
# [9] = read-out: HDAC-Glo: IC50, HCT116, cherry-pick confirmation, 11 concentrations, 1 hour
# [10] = read-out: IC50, HDAC-Glo I/II HCT116 assay, powder confirmation
"IC50 [1, 9]","Viability: IC50, HCT116 [3]",IC50 [4],"IC50 [1, 10]",Molecule,"HDAC-Glo: Efficacy, HCT116 ([1]; cherry-pick confirmation)","Viability: IC50, hNSC [2]","HDAC-Glo: Efficacy, hNSC [4]","Efficacy, HDAC-Glo I/II HCT116 assay ([1]; powder confirmation)",also measured
940 ± 110 nM,Inactive,760 ± 170 nM,,CC(C)[C@H](C(=O)Nc1ccc(C(=O)NO)cc1)c1ccccc1 [AR-42],113 ± 2%,Inactive,115 ± 5%,,
,,,,CNC(=O)c1ccccc1Sc1ccc2c(/C=C/c3ccccn3)n[nH]c2c1 [Axitinib],2.97 ± 0.34 (105 ± 3) %,,6.65 ± 0.76 (106 ± 4) %,,inhibition of HDAC6 (in words) [5]: inhibited HDADC6 the most
1940 ± 660 nM,Inactive,950 ± 200 nM,,CN(C)C(=O)COC(=O)Cc1ccc(OC(=O)c2ccc(NC(=N)N)cc2)cc1 [Camostat],109 ± 4%,Inactive,102 ± 3%,,inhibition of HDAC-Glo I/II luminescence signals [4]: completely inhibited
3870 ± 810 nM,Inactive,2240 ± 150 nM,5280 ± 630 nM,O=C(Oc1ccccc1)c1cccc(C(=O)Oc2ccccc2)c1 [Diphenyl isophthalate],112 ± 5%,Inactive,103 ± 3%,97 ± 0%,inhibition of HDAC3 (in words) [6]: selectively inhibited
2380 ± 440 nM,Inactive,2160 ± 600 nM,2430 ± 270 nM,Cc1nc(-c2ccc(OCC(C)C)c(C#N)c2)sc1C(=O)O [Febuxostat],127 ± 5%,Inactive,116 ± 3%,96 ± 1%,inhibition of HDAC3 (in words) [6]: selectively inhibited; also recorded: selective to HDAC3
,,,,C[C@@H]1NC(=O)[C@H]2CCCN2C(=O)[C@H](CCCCCC(=O)[C@@H]2CO2)NC(=O)[C@@H](C)NC1=O [HC Toxin],,,,,HDAC I/II inhibitory activity (in words) [1]: identified
2320 ± 650 nM,Inactive,1960 ± 350 nM,,CC(C)(C)OC(=O)Nc1ccc(-c2cc(C(=O)NCCCCCCC(=O)NO)no2)cc1 [ISOX],124 ± 5%,Inactive,118 ± 6%,,
1670 ± 190 nM,Inactive,2020 ± 130 nM,2360 ± 110 nM,O=C(/C=C/c1ccc(O)cc1)c1ccc(O)cc1O [Isoliquiritigenin],110 ± 3%,Inactive,117 ± 5%,97 ± 0%,inhibition of HDAC isoforms (in words) [7]: weakly inhibited many class I and II HDAC enzymes
9480 ± 1980 nM,Inactive,5900 nM,5610 ± 120 nM,Cc1oncc1C(=O)Nc1ccc(C(F)(F)F)cc1 [Leflunomide],118 ± 11%,Inactive,106 ± 2%,92 ± 0%,inhibition of HDAC3 (in words) [6]: selectively inhibited
2380 ± 160 nM,Inactive,1400 ± 240 nM,2080 ± 170 nM,O=C(Nc1ccc([N+](=O)[O-])cc1Cl)c1cc(Cl)ccc1O [Niclosamide],112 ± 2%,Inactive,102 ± 4%,98 ± 1%,
350 ± 60 nM,Inactive,270 ± 60 nM,,CCCCc1nc2cc(/C=C/C(=O)NO)ccc2n1CCN(CC)CC [Pracinostat],114 ± 4%,Inactive,112 ± 5%,,
,,,,Nc1cc(F)ccc1NC(=O)/C=C/c1cnn(C/C=C/c2ccccc2)c1 [RGFP966],,,,,HDAC I/II inhibitory activity (in words) [1]: identified
1870 ± 220 nM,Inactive,1190 ± 250 nM,1760 ± 240 nM,O=C(CCCCCN1C(=O)c2cccc3cccc(c23)C1=O)NO [Scriptaid],123 ± 3%,Inactive,113 ± 6%,93 ± 1%,inhibition against all class I and II HDAC enzymes [7]: over 80%; inhibition of HDAC isoforms (in words) [7]: inhibited activities of all isoforms
,Inactive,660 ± 80 nM,,"O=C(CCCCCCC(=O)Nc1ccccc1)NO [Vorinostat, suberoylanilide hydroxamic acid]",0.77 ± 0.05 (119 ± 6) %,Inactive,101 ± 2%,0.45 ± 0.04 (99 ± 0) %,
,,,,CCC[S+]([O-])c1ccc2[nH]c(NC(=O)OC)nc2c1 (stereo not shown) [albendazole oxide],,,,,"HDAC activity inhibited, HDAC-Glo I/II [1]: more than half"
,,,,CCCSc1ccc2nc(NC(=O)OC)[nH]c2c1 [albendazole],,,,,"HDAC activity inhibited, HDAC-Glo I/II [1]: more than half"
,,,,CCC(=O)CCCCC[C@@H]1NC(=O)[C@H]2CCCCN2C(=O)[C@H]([C@@H](C)CC)NC(=O)[C@H](Cc2cn(OC)c3ccccc23)NC1=O [apicidin],,,,,HDAC I/II inhibitory activity (in words) [1]: identified
,,,,Nc1cc(F)ccc1NC(=O)c1ccc(CNC(=O)/C=C/c2cccnc2)cc1 [chidamide],,,,,HDAC I/II inhibitory activity (in words) [1]: identified
,,,,Nc1ccccc1NC(=O)c1ccc(CNC(=O)OCc2cccnc2)cc1 [entinostat],,,,,HDAC I/II inhibitory activity (in words) [1]: identified
,,,,CCCC(=O)[O-].[Na+] [sodium butyrate],,,,,"IC50, HDAC-Glo activity [1]: did not show concentration-dependent inhibition; IC50, HDAC-Glo activity [8]: did not show concentration-dependent inhibition"
,,,,O=C(O)CCCc1ccccc1 [sodium phenylbutyrate],,,,,"IC50, HDAC-Glo activity [1]: did not show concentration-dependent inhibition; IC50, HDAC-Glo activity [8]: did not show concentration-dependent inhibition"
,,,,c1ccc2[nH]c(-c3cscn3)nc2c1 [thiabendazole],,,,,"HDAC activity inhibited, HDAC-Glo I/II [1]: more than half"
,,,,CCCC(CCC)C(=O)O [valproic acid],,,,,"IC50, HDAC-Glo activity [1]: did not show concentration-dependent inhibition; IC50, HDAC-Glo activity [8]: did not show concentration-dependent inhibition"
,,,,selisistat [selisistat (EX-527)],,,,,"average IC50, HDAC-Glo I/II, assay selectivity ([1]; HCT116, Figure 1C): inactive"

Molecule,"IC50 [1, 9]","Viability: IC50, HCT116 [3]",IC50 [4],"IC50 [1, 10]","HDAC-Glo: Efficacy, HCT116 ([1]; cherry-pick confirmation)","Viability: IC50, hNSC [2]","HDAC-Glo: Efficacy, hNSC [4]","Efficacy, HDAC-Glo I/II HCT116 assay ([1]; powder confirmation)",also measured
CC(C)c1ccc2oc3nc(N)c(C(=O)O)cc3c(=O)c2c1 [Amlexanox],1090 ± 70 nM,Inactive,1100 ± 140 nM,1650 ± 360 nM,110 ± 2%,Inactive,96 ± 7%,98 ± 0%,
Oc1ccc(/C=C/c2cc(O)cc(O)c2)cc1 [Resveratrol],11000 ± 1980 nM,Inactive,7430 nM,18200 ± 2050 nM,97 ± 13%,Inactive,102 ± 4%,69 ± 2%,HDAC I/II inhibitory activity (in words) [1]: identified; inhibition of HDAC-Glo I/II luminescence signals [4]: completely inhibited
